Where two headings read alike, the source gives them in different places.
Columns and labels:
AChE peripheral site = AChE peripheral site (Bos taurus, UniProt P23795); test: Propidium competition (fluorescence); assay type: binding; conditions: 10 μM AchE, 20 μM propidium iodide, pH 8.0
Procedure: Fluorescence was measured in a Fluostar optima plate reader (BMG). Measurements were carried out in 100 μl solution volume, in 96-well plates. The buffer used wad 1 mM Tris/HCl, pH 8.0. 10 μM AchE was incubated, at least 6 hours, with the molecules at different concentrations. 20 μM propidium iodide was added 10 min before fluorescence measurement. The excitation wavelength was 485 nm, and that of emission, 620 nm.

[1] = molecular target: T1, AChE (from bovine erythrocytes) (Bos taurus, UniProt P23795); test: biochemical; assay type: biochemical
T1 construct: 0.02 unit AChE (Sigma Chemical Co. from bovine erythrocytes); purchased Sigma Chemical Co; host or cells: bovine erythrocytes (natural source)
Procedure: Acetylcholinesterase (AChE) Inhibition (from Bovine Erythrocytes)
AChE inhibitory activity was evaluated at 30° C. by the colorimetric method reported by Ellman [Ellman, G. L.; Courtney, K. D.; Andres, B.; Featherstone, R. M. Biochem. Pharmacol. 1961, 7, 88-95]. The assay solution consisted of 0.1 M phosphate buffer pH 8, 0.3 mM 5,5′-dithiobis(2-nitrobenzoic acid) (DTNB, Ellman's reagent), 0.02 unit AChE (Sigma Chemical Co. from bovine erythrocytes), and 0.5 mM acetylthiocholine iodide as the substrate of the enzymatic reaction. The compounds tested were added to the assay solution and pre incubated with the enzyme for 5 min at 30° C. After that period, the substrate was added. […] The compound concentration producing 50% of AChE inhibition (IC50) was determined.

[2] = system: human neuroblastoma cell line SH-SY5Y; test: Toxicity measurement (LDH release); assay type: cell-based; conditions: 24 hours exposure
Procedure: The cytotoxicity effect of the molecules was tested in the human neuroblastoma cell line SH-SY5Y. These cells were cultured in 96-well plates in DULBECCO'S MOD EAGLE medium, supplemented with 10% fetal bovine serum and 1% penicillin/streptomycin, and grown in a 5% CO2 humidified incubator at 37° C.
The cells were plated at 10^4 cells for each well, at least, 48 hours before the toxicity measure. Cells were exposed for 24 hours to the compounds at different concentrations (from 10^−5 to 10^−9), quantitative assessment of cell death was made by measurement of the intracellular enzyme lactate dehydrogenase (LDH) (citotoxicity detection kit, Roche). The quantity of LDH was evaluated in a microplate reader Anthos 2010, at 492 and 620 nm. Controls were taken as 100% viability.

BuChE from human serum = molecular target: T2, BuChE from human serum (Homo sapiens, UniProt P06276); test: Butyrylcholinesterase (BuChE) inhibition, Ellman colorimetric method; assay type: biochemical
T2 construct: 0.01 unit BuChE from human serum; from tissue; host or cells: human serum
Procedure: Butyrylcholinesterase (BuChE) Inhibition (from Human Serum)
BuChE inhibitory activity was evaluated at 30° C. by the colorimetric method reported by Ellman. The assay solution consisted of 0.01 unit BuChE from human serum, 0.1 M sodium phosphate buffer pH 8, 0.3 mM 5,5′-dithiobis(2-nitrobenzoic acid) (DTNB, Ellman's reagent), and 0.5 mM butyrylthiocholine iodide as the substrate of the enzymatic reaction. Enzyme activity was determined by measuring the absorbance at 405 nm during 5 minutes with a microplate reader Digiscan 340T. The tested compounds were preincubated with the enzyme for 10 minutes at 30° C. The reaction rate was calculated with, at least, triplicate measurements. The IC50 is defined as the concentration of each compound that reduces a 50% the enzymatic activity with respect to that without inhibitor.

[3] = molecular target: T3, β-amyloid-huAChE aggregation complex (Homo sapiens, UniProt P22303); test: Inhibition of β-amyloid aggregation (Congo Red binding); assay type: biochemical; conditions: Aβ1-40 0.1 mM, Aβ:huAChE 200:1, 48 hours
T3 construct: purchased Sigma-Aldrich (huAChE); rPeptide (Aβ1-40)
Procedure: Inhibition of β-Amyloid Aggregation
The generation of AChE-Aβ complexes were carried out as described previously [Alvarez, A et al. J. Neurosci., 1998, 18, 3213-3223; Muñoz, F. J.; Inestrosa, N. C. FEBS Let., 1999, 450, 205-209]. Stock solutions of Aβ1-40 (rPeptide, Georgia USA) at 3.5 mM were dissolved in PBS (pH 7.4) after HFIP treatment to obtain monomeric starting material, according to manufacture's recommendations. For co-incubation experiments, 0.1 mM of peptide was mixed with human recombinant acetylcholinesterase (huAchE, Sigma-Aldrich), in the same buffer at molar ratio Aβ:huAChE 200:1, and stirred for 48 hours in a microtiter plate at room temperature. The fibrils obtained were characterized by Congo Red (CR) binding.
For the inhibition of β-amyloid aggregation, the compounds tested were used at the IC50 defined in the previous paragraph of the biological evaluation, 50 μM propidium iodide was used as reference [Inestrosa, N. C et al., J. Neuron, 1996, 16, 881-891].
To quantify the amount of fibrils aggregated, the binding to CR was done as described [Klunk, W E.; Pettegrew, J W.; Abraham, D J. J. Hystochem Cytochem., 1989, 8, 1293-1297]. Briefly, 5.5 μl aliquot of the aggregation mixture was added to 132 μl of a 25 μM CR solution (100 mM phosphate buffer pH 7.4, 150 mM NaCl), and incubated for 30 minutes at room temperature. Absorbance was measured at 480 and 540 nm and the molarity of aggregates calculated by CR(M)=(A540/25295)−(A480/46306).

[4] = AChE from bovine erythrocytes, 30° C., pH 8, read-out: IC50 AChE
[5] = BuChE from human serum, 30° C., pH 8, read-out: IC50 BuChE

T1 sequence (P23795 other isoform, or with tags, fused parts or gaps): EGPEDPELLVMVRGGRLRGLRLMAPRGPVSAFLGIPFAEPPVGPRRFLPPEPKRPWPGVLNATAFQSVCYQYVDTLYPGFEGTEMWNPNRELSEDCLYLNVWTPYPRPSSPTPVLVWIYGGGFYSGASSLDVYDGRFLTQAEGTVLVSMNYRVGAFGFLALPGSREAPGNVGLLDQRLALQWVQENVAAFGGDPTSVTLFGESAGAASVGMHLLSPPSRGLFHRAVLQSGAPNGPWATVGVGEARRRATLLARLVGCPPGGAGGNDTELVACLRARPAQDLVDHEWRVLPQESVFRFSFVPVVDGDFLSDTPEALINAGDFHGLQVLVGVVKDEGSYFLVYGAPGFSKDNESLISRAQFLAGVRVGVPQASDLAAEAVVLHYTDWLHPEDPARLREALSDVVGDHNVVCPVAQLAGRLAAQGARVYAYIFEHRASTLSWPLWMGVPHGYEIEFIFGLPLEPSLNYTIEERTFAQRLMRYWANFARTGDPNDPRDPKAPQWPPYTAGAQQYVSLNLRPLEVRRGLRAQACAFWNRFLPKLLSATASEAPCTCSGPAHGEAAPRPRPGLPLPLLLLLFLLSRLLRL
Sequence of AChE peripheral site (P23795 other isoform, or with tags, fused parts or gaps): as above
T3 sequence (P22303 32-614, one chain of several): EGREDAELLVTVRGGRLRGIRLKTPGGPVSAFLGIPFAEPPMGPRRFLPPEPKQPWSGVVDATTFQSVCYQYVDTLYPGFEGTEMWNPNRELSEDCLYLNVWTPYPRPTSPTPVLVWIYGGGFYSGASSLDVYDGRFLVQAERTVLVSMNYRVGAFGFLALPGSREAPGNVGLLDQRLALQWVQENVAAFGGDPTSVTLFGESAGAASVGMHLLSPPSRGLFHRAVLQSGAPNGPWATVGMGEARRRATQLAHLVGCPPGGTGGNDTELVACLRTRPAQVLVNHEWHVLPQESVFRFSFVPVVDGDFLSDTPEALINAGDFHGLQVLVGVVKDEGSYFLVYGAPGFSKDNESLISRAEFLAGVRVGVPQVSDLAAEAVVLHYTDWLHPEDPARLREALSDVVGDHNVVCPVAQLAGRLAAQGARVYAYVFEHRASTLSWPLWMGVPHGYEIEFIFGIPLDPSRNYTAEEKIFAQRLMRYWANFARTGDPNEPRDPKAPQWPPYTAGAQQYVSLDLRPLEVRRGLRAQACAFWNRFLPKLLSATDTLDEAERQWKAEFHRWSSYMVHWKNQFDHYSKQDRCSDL
T2 sequence (P06276 29-602): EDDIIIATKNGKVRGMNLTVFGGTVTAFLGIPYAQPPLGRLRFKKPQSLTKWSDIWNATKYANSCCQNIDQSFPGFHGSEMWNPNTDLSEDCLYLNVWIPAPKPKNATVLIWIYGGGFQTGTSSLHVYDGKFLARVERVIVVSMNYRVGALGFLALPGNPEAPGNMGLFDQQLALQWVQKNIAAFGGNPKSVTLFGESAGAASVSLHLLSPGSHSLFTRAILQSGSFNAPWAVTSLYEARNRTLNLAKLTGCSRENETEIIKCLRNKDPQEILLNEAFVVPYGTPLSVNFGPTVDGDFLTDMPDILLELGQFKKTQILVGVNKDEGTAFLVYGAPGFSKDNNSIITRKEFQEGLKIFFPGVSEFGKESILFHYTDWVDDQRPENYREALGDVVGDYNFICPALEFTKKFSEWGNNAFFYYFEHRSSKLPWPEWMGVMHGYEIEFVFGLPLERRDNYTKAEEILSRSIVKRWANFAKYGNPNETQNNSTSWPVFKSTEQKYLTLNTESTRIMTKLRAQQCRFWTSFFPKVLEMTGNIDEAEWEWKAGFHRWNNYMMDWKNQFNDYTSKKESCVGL

| SMILES | Propidium competition (AChE peripheral site) | IC50 [1, 4] | Toxicity [2] | IC50 (BuChE from human serum) | IC50 (BuChE from human serum; [5]) | IC50 [1] | reduction in the β-amyloid-huAChE aggregation complex ([3]; 50 μM propidium iodide as reference) | reduction in the β-amyloid-huAChE aggregation complex ([3]; compound used at its IC50) |
| --- | --- | --- | --- | --- | --- | --- | --- | --- |
| O=C(NCCCCCCNc1c2c(nc3cc(Cl)ccc13)CCCC2)OCCc1c[nH]c2ccccc12 [Compound 24, [6-(6-Chloro-1,2,3,4-tetrahydro-acridin-9-ylamino)-hexyl]-carbamic Acid 2-(1h-indol-3-yl)ethyl Ester] | 100 µM | 0.7 nM | >10 µM | 3.2 nM | – | – | – | – |
| O=C(NCCCCCNc1c2c(nc3cc(Cl)ccc13)CCCC2)c1c[nH]c2ccccc12 [Compound 10, 1H-Indole-3-carboxylic acid [5-(6-chloro-1,2,3,4-tetrahydro-acridin-9-ylamino)-pentyl]-amide] | 100 µM | 180 nM | >10 µM | – | 9.5 nM | – | – | – |
| Clc1ccc2c(NCCc3c[nH]c4ccccc34)c3c(nc2c1)CCCC3 [Comparative Example, N-[2-3(Indolyl)ethyl]-6-chlorotacrine, reference compound] | – | 537 nM | – | – | – | – | – | – |
| O=C(Cc1c[nH]c2ccc(Br)cc12)NCCCCCCCNc1c2c(nc3cc(Cl)ccc13)CCCC2 [Compound 18, 2-(5-Bromo-1H-indol-3-yl)-N-[7-(6-chloro-1,2,3,4-tetrahydro-acridin-9-ylamino)-heptyl]-acetamide] | 100 µM | – | >10 µM | – | 1.7 nM | 0.63 nM | – | – |
| O=C(NCCCCCCNc1c2c(nc3cc(Cl)ccc13)CCCC2)c1c[nH]c2ccccc12 [Compound 11, 1H-Indole-3-carboxylic acid [6-(6-chloro-1,2,3,4-tetrahydro-acridin-9-ylamino)-hexyl]-amide] | 100 µM | 33 nM | >10 µM | – | 1.7 nM | – | – | – |
| O=C(CCc1c[nH]c2ccccc12)NCCCCCCCCNc1c2c(nc3cc(Cl)ccc13)CCCC2 [Compound 5, N-[8-(6-Chloro-1,2,3,4-tetrahydro-acridin-9-ylamino)-octyl]-3-(1H-indol-3-yl)propionamide] | 10 µM | 0.5 nM | 10 µM | – | 5.7 nM | – | – | – |
| O=C(CCc1c[nH]c2ccccc12)NCCCCCCCNc1c2c(nc3cc(Cl)ccc13)CCCC2 [Compound 4, N-[7-(6-Chloro-1,2,3,4-tetrahydro-acridin-9-ylamino)-heptyl]-3-(1H-indol-3-yl)-propionamide] | 10 µM | 0.06 nM | 10 µM | – | 0.1 nM | – | – | – |
| CC[N+](C)(CC)CCC[n+]1c(-c2ccccc2)c2cc(N)ccc2c2ccc(N)cc21 [propidium iodide, reference compound] | – | – | – | – | – | – | 10% | – |
| O=C(CCc1c[nH]c2ccccc12)NCCCCCCNc1c2c(nc3cc(Cl)ccc13)CCCC2 [Compound 3] | 1000 µM | 0.02 nM | 100 µM | – | 2.9 nM | – | – | 15% |
| O=C(CCc1c[nH]c2ccccc12)NCCCCCNc1c2c(nc3ccccc13)CCCC2 [Compound 2, 3-(1H-Indol-3-yl)-N-[5-(1,2,3,4-tetrahydro-acridin-9-ylamino)-pentyl]-propionamide] | 10 µM | 70 nM | >100 µM | – | 1 nM | – | – | – |
| O=C(NCCCCCCCCNc1c2c(nc3cc(Cl)ccc13)CCCC2)c1c[nH]c2ccccc12 [Compound 13, 1H-Indole-3-carboxylic acid [8-(6-chloro-1,2,3,4-tetrahydro-acridin-9-ylamino)octyl]-amide] | 10 µM | 46 nM | >10 µM | – | 22.4 nM | – | – | – |
| O=C(NCCCCCCCNc1c2c(nc3cc(Cl)ccc13)CCCC2)c1n[nH]c2ccccc12 [Compound 21, 1H-Indazole-3-carboxylic acid [7-(6-chloro-1,2,3,4-tetrahydroacridin-9-ylamino)heptyl]-amide] | 100 µM | 95 nM | >10 µM | – | 79 nM | – | – | – |
| O=C(NCCCCCCCNc1c2c(nc3cc(Cl)ccc13)CCCC2)c1c[nH]c2ccccc12 [Compound 12, 1H-Indole-3-carboxylic acid [7-(6-chloro-1,2,3,4-tetrahydro-acridin-9-ylamino)-heptyl]-amide] | 100 µM | 36 nM | >10 µM | – | 19 nM | – | – | – |
| O=C(CCCc1c[nH]c2ccccc12)NCCCCCCNc1c2c(nc3cc(Cl)ccc13)CCCC2 [Compound 16, N-[6-(6-Chloro-1,2,3,4-tetrahydro-acridin-9-ylamino)-hexyl]4-(1H-Indol-3-yl)-butyramide] | 100 µM | 0.48 nM | >10 µM | – | 5.6 nM | – | – | – |
| CN(CCCNC(=O)CCc1c[nH]c2ccccc12)CCCNc1c2c(nc3cc(Cl)ccc13)CCCC2 [Compound 9, N-(3-{[3-(6-chloro-1,2,3,4-tetrahydro-acridin-9-ylamino)-propyl]-methyl-amino}-propyl)-3-(1H-indol-3-yl)-propionamide] | 10 µM | 2.88 nM | >100 µM | – | 7.57 nM | – | – | – |
| O=C(CCc1c[nH]c2ccccc12)NCCCCCCCCCNc1c2c(nc3cc(Cl)ccc13)CCCC2 [Compound 6, N-[9-(6-Chloro-1,2,3,4-tetrahydro-acridin-9-ylamino)-nonyl]-3-(1H-indol-3-yl)-propionamide] | >100 µM | – | >100 µM | – | 9.6 nM | – | – | – |
| CN(CCCNC(=O)CCc1c[nH]c2ccccc12)CCCNc1c2c(nc3ccccc13)CCCC2 [Compound 8, N-(3-{[3-(1,2,3,4-tetrahydro-acridin-9-ylamino)-propyl]-methyl-amino}-propyl)-3-(1H-indol-3-yl)propionamide] | 1000 µM | 147 nM | >100 µM | – | 0.03 nM | – | – | 17% |
| O=C(CCc1c[nH]c2ccccc12)NCCCCCCCCCCNc1c2c(nc3cc(Cl)ccc13)CCCC2 [Compound 7, N-[10-(6-Chloro-1,2,3,4-tetrahydro-acridin-9-ylamino)-decyl]-3-(1H-indol-3-yl)-propionamide] | 10 µM | 21.9 nM | >100 µM | – | 54 nM | – | – | – |
